The values below come from EP1660440B1, “ACYLOXYALKYL CARBAMATE PRODRUGS, METHODS OF SYNTHESIS AND USE” (priority 2003, dated 2005).

For data set [1] the following is noted: rat, plasma, 1 h, 2 µM.
Procedure: (§1) The stabilities of prodrugs were evaluated in one or more in vitro systems using a variety of tissue preparations following methods known in the art. The chemical stability of prodrugs in aqueous buffers at pH's of 2.0, 7.4 and 8.0 were also measured. […] Each preparation was incubated with test compound at 37°C for one hour. Aliquots (50 µL) were removed at 0, 30, and 60 min and quenched with 0.1 % trifluoroacetic acid in acetonitrile.
For data set [2] the following is noted: human, plasma, 1 h, 2 µM.
Procedure: as §1
For data set [3] the following is noted: human, s9, 1 h, 2 µM.
Procedure: as §1
For data set [4] the following is noted: human, s9, 1 h, 5 µM.
Procedure: For stability studies, prodrug (5 µM) was incubated in Caco-2 homogenate S9 fraction (0.5 mg protein per mL) for 60 min at 37°C. Concentrations of intact prodrug and released baclofen were determined at zero time and 60 minutes using LC/MS/MS.
The conditions of data set [5]: aqueous buffer, 1 h.
Procedure: as §1
In a further data set the test system is Pancreatin. In words: Pancreatin stability. It counts as in vitro ADME, porcine. Conditions: 1 % (w/v) pancreatin, 5 µM, pH 7.5, 37 °C, after 60 min. Here is the method:
Pancreatin Stability: Stability studies were conducted by incubating prodrug (5 µM) with 1 % (w/v) pancreatin (Sigma, P-1625, from porcine pancreas) in 0.025 M Tris buffer containing 0.5 M NaCl (pH 7.5) at 37 °C for 60 min. The reaction was stopped by addition of 2 volumes of methanol. After centrifugation at 14,000 rpm for 10 min, the supernatant was removed and analyzed by LC/MS/MS.

For data set [6] the following is noted: rat, s9, 1 h, 2 µM.
Procedure: as §1

Read-outs that look alike come from different tables or passages of the source.

Turning to `CCC[C@H](OC(=O)NC[C@H](CC(=O)[O-])c1ccc(Cl)cc1)OC(=O)C(C)C.[Na+]` [(91), Sodium 4-{[(1S)-Isobutanoyloxybutoxy]carbonylamino}-(3R)-(4-chlorophenyl)-butanoate], the “% of Baclofen Released” value in data set [1] was 10%; in data set [2], 2%; in data set [3], 78%; in data set [4], 107%; in data set [5] (pH 2), 0%; in data set [5] (pH 7.4) it was 0%. The “% of Baclofen Released” value in data set [5] (pH 8) is 1%; with Pancreatin, 78%; in data set [6], 70%. Moreover, the “% of Prodrug Remaining” value is given as 80% in data set [1]; 83% in data set [2]; 1% in data set [3]; 6% in data set [4]; 100% in data set [5] (pH 2); 97% in data set [5] (pH 7.4). Besides, the “% of Prodrug Remaining” value is recorded as 94% in data set [5] (pH 8), 11% with Pancreatin and 22% in data set [6].
For the compound `CC(C)C(=O)OC(OC(=O)NC[C@H](CC(=O)[O-])c1ccc(Cl)cc1)C(C)C.[Na+]` (stereo partly drawn) [(25), Sodium 4-[(1-Isobutanoyloxyisobutoxy)carbonylamino]-(3R)-(4-chlorophenyl)-butanoate], the “% of Baclofen Released” value worked out at 96% in data set [1]; 4% in data set [2]; 91% in data set [3]; 95% in data set [4]; 0% in data set [5] (pH 2); 0% in data set [5] (pH 7.4). Also, the “% of Baclofen Released” value is reported as 0% in data set [5] (pH 8), 84% in the data set on Pancreatin and 98% in data set [6]. Besides, the “% of Prodrug Remaining” value in data set [1] was determined as 5%; in data set [2] it was 93%; in data set [3], 4%; in data set [4] it was 2%; in data set [5] (pH 2) it was 101%; in data set [5] (pH 7.4) it was 100%. Also, the “% of Prodrug Remaining” value is recorded as 100% in data set [5] (pH 8), 22% in the data set with Pancreatin and 1% in data set [6].
For the compound `CC(C)C(=O)OC(OC(=O)NC[C@H](CC(=O)[O-])c1ccc(Cl)cc1)C1CCCCC1.[Na+]` (stereo partly drawn) [(84), Sodium 4-[(1-Isobutanoyloxy-1-cyclohexylmethoxy)carbonylamino]-(3R)-(4-chlorophenyl)-butanoate], the “% of Baclofen Released” value stood at 11% in data set [1]; 4% in data set [2]; 82% in data set [3]; 76% in data set [4]; 0% in data set [5] (pH 2); 0% in data set [5] (pH 7.4). In addition, the results for the “% of Baclofen Released” value (in data set [5] (pH 8); in the data set with Pancreatin; in data set [6]) were 1%, 40% and 91%, respectively. The “% of Prodrug Remaining” value came out at 91% in data set [1]; 89% in data set [2]; 2% in data set [3]; 13% in data set [4]; 85% in data set [5] (pH 2); 84% in data set [5] (pH 7.4). In addition, the “% of Prodrug Remaining” value in data set [5] (pH 8) is reported as 94%; in the data set on Pancreatin, 47%; in data set [6], 4%.
